Test results from patent publication US12077503B2, “Substituted cyclic amides and their use as herbicides” (FMC CORPORATION, priority 2015, dated 2024).

Columns and labels:
Assay type in all cases: in vivo
[1] = system: velvetleaf (Abutilon theophrasti); assay: Test G Pre-Emergence Protocol; details: Abutilon theophrasti, pre-emergence, 312 h, evaluated after 13 days; for pest or weed control at 15.625 g/ha: 15.625 g ai/ha; for pest or weed control at 15.625 g/ha / pest or weed control at 250 g/ha: read-out: Velvetleaf damage rating (100=total damage to plant; 0=no damage to plant); for pest or weed control at 62.5 g/ha: 62.5 g ai/ha, 100=total damage to plant, 0=no damage to plant, read-out: Velvetleaf damage rating; for pest or weed control at 250 g/ha: 250 g ai/ha
In short: (§1)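 Seeds were sown in standard soil and kept one day in a glasshouse (24/16° C day/night, 14 h light, 65% humidity), then sprayed with compound in acetone/water (50:50) containing 0.5% Tween 20 at 15.625, 62.5 or 250 g/ha. Damage was scored after 13 days (0 = none, 100 = total).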

[2] = system: barnyardgrass (Echinochloa crus-galli); assay: Test G Pre-Emergence Protocol; details: Echinochloa crus-galli, pre-emergence, 312 h, evaluated after 13 days; for pest or weed control at 15.625 g/ha: 15.625 g ai/ha; for pest or weed control at 15.625 g/ha / pest or weed control at 250 g/ha: read-out: Barnyardgrass damage rating (100=total damage to plant; 0=no damage to plant); for pest or weed control at 62.5 g/ha: 62.5 g ai/ha, 100=total damage to plant, 0=no damage to plant, read-out: Barnyardgrass damage rating; for pest or weed control at 250 g/ha: 250 g ai/ha
In short: as §1

corn (Zea mays) [3] = assay: Test G Pre-Emergence Protocol; details: Zea mays, pre-emergence, 312 h, evaluated after 13 days; for plant injury at 15.625 g/ha: 15.625 g ai/ha; for plant injury at 15.625 g/ha / plant injury at 250 g/ha: read-out: Corn damage rating (100=total damage to plant; 0=no damage to plant); for plant injury at 62.5 g/ha: 62.5 g ai/ha, 100=total damage to plant, 0=no damage to plant, read-out: Corn damage rating; for plant injury at 250 g/ha: 250 g ai/ha
In short: as §1

[4] = system: ivy-leaved morning glory (Ipomoea hederacea); assay: Test G Pre-Emergence Protocol; details: Ipomoea, pre-emergence, 312 h, evaluated after 13 days; for pest or weed control at 15.625 g/ha: 15.625 g ai/ha; for pest or weed control at 15.625 g/ha / pest or weed control at 250 g/ha: read-out: Morningglory, Ivy-leaved damage rating (100=total damage to plant; 0=no damage to plant); for pest or weed control at 62.5 g/ha: 62.5 g ai/ha, 100=total damage to plant, 0=no damage to plant, read-out: Morningglory, Ivy-leaved damage rating; for pest or weed control at 250 g/ha: 250 g ai/ha
In short: as §1

[5] = system: redroot pigweed (Amaranthus retroflexus); assay: Test G Pre-Emergence Protocol; details: Amaranthus retroflexus, pre-emergence, 312 h, evaluated after 13 days; for pest or weed control at 15.625 g/ha: 15.625 g ai/ha; for pest or weed control at 15.625 g/ha / pest or weed control at 250 g/ha: read-out: Pigweed, Redroot damage rating (100=total damage to plant; 0=no damage to plant); for pest or weed control at 62.5 g/ha: 62.5 g ai/ha, 100=total damage to plant, 0=no damage to plant, read-out: Pigweed, Redroot damage rating; for pest or weed control at 250 g/ha: 250 g ai/ha
In short: as §1

[6] = system: giant foxtail (Setaria faberi); assay: Test G Pre-Emergence Protocol; details: Setaria faberi, pre-emergence, 312 h, evaluated after 13 days; for pest or weed control at 15.625 g/ha: 15.625 g ai/ha; for pest or weed control at 15.625 g/ha / pest or weed control at 250 g/ha: read-out: Foxtail, Giant damage rating (100=total damage to plant; 0=no damage to plant); for pest or weed control at 62.5 g/ha: 62.5 g ai/ha, 100=total damage to plant, 0=no damage to plant, read-out: Foxtail, Giant damage rating; for pest or weed control at 250 g/ha: 250 g ai/ha
In short: as §1

[7] = system: velvetleaf (Abutilon theophrasti); assay: Test G Post-Emergence Protocol; details: Abutilon theophrasti, post-emergence, 312 h, read-out: Velvetleaf damage rating; for pest or weed control at 15.625 g/ha: 15.625 g ai/ha, evaluated after 13 days (100=total damage to plant; 0=no damage to plant); for pest or weed control at 62.5 g/ha: 62.5 g ai/ha; for pest or weed control at 62.5 g/ha / pest or weed control at 250 g/ha: evaluated after 13 days, 100=total damage to plant, 0=no damage to plant; for pest or weed control at 250 g/ha: 250 g ai/ha
In short: (§2)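 Eight days post-sowing, plants received a spray of test compound (acetone/water 50:50, 0.5% Tween 20) at 15.625, 62.5 or 250 g/ha. Glasshouse regime thereafter: 24/16 °C, 14 h light, 65% humidity. Assessment after 13 days on a 0–100 damage scale.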

[8] = system: barnyardgrass (Echinochloa crus-galli); assay: Test G Post-Emergence Protocol; details: Echinochloa crus-galli, post-emergence, 312 h, read-out: Barnyardgrass damage rating; for pest or weed control at 15.625 g/ha: 15.625 g ai/ha, evaluated after 13 days (100=total damage to plant; 0=no damage to plant); for pest or weed control at 62.5 g/ha: 62.5 g ai/ha; for pest or weed control at 62.5 g/ha / pest or weed control at 250 g/ha: evaluated after 13 days, 100=total damage to plant, 0=no damage to plant; for pest or weed control at 250 g/ha: 250 g ai/ha
In short: as §2

corn (Zea mays) [9] = assay: Test G Post-Emergence Protocol; details: Zea mays, post-emergence, 312 h, read-out: Corn damage rating; for plant injury at 15.625 g/ha: 15.625 g ai/ha, evaluated after 13 days (100=total damage to plant; 0=no damage to plant); for plant injury at 62.5 g/ha: 62.5 g ai/ha; for plant injury at 62.5 g/ha / plant injury at 250 g/ha: evaluated after 13 days, 100=total damage to plant, 0=no damage to plant; for plant injury at 250 g/ha: 250 g ai/ha
In short: as §2

[10] = system: ivy-leaved morning glory (Ipomoea hederacea); assay: Test G Post-Emergence Protocol; details: Ipomoea, post-emergence, 312 h, read-out: Morningglory, Ivy-leaved damage rating; for pest or weed control at 15.625 g/ha: 15.625 g ai/ha, evaluated after 13 days (100=total damage to plant; 0=no damage to plant); for pest or weed control at 62.5 g/ha: 62.5 g ai/ha; for pest or weed control at 62.5 g/ha / pest or weed control at 250 g/ha: evaluated after 13 days, 100=total damage to plant, 0=no damage to plant; for pest or weed control at 250 g/ha: 250 g ai/ha
In short: as §2

[11] = system: redroot pigweed (Amaranthus retroflexus); assay: Test G Post-Emergence Protocol; details: Amaranthus retroflexus, post-emergence, 312 h, read-out: Pigweed, Redroot damage rating; for pest or weed control at 15.625 g/ha: 15.625 g ai/ha, evaluated after 13 days (100=total damage to plant; 0=no damage to plant); for pest or weed control at 62.5 g/ha: 62.5 g ai/ha; for pest or weed control at 62.5 g/ha / pest or weed control at 250 g/ha: evaluated after 13 days, 100=total damage to plant, 0=no damage to plant; for pest or weed control at 250 g/ha: 250 g ai/ha
In short: as §2

[12] = system: giant foxtail (Setaria faberi); assay: Test G Post-Emergence Protocol; details: Setaria faberi, post-emergence, 312 h, read-out: Foxtail, Giant damage rating; for pest or weed control at 15.625 g/ha: 15.625 g ai/ha, evaluated after 13 days (100=total damage to plant; 0=no damage to plant); for pest or weed control at 62.5 g/ha: 62.5 g ai/ha; for pest or weed control at 62.5 g/ha / pest or weed control at 250 g/ha: evaluated after 13 days, 100=total damage to plant, 0=no damage to plant; for pest or weed control at 250 g/ha: 250 g ai/ha
In short: as §2

| SMILES | pest or weed control at 15.625 g/ha [1] | pest or weed control at 62.5 g/ha [1] | pest or weed control at 250 g/ha [1] | pest or weed control at 15.625 g/ha [2] | pest or weed control at 62.5 g/ha [2] | pest or weed control at 250 g/ha [2] | plant injury at 15.625 g/ha (corn (Zea mays) [3]) | plant injury at 62.5 g/ha (corn (Zea mays) [3]) | plant injury at 250 g/ha (corn (Zea mays) [3]) | pest or weed control at 15.625 g/ha [4] | pest or weed control at 62.5 g/ha [4] | pest or weed control at 250 g/ha [4] | pest or weed control at 15.625 g/ha [5] | pest or weed control at 62.5 g/ha [5] | pest or weed control at 250 g/ha [5] | pest or weed control at 15.625 g/ha [6] | pest or weed control at 62.5 g/ha [6] | pest or weed control at 250 g/ha [6] | pest or weed control at 15.625 g/ha [7] | pest or weed control at 62.5 g/ha [7] | also measured |
| --- | --- | --- | --- | --- | --- | --- | --- | --- | --- | --- | --- | --- | --- | --- | --- | --- | --- | --- | --- | --- | --- |
| CN1C[C@H](c2ccc(C(F)(F)F)cc2)[C@@H](C(=O)Nc2cc(C#N)ccn2)C1=O (racemic) [Compound 1734] | 0% | 0% | 0% | 0% | 0% | 0% | 0% | 0% | 0% | 0% | 0% | 0% | 0% | 0% | 0% | 0% | 0% | 10% | 0% | 0% | pest or weed control at 250 g/ha [7]: 0%; pest or weed control at 15.625 g/ha [8]: 0%; pest or weed control at 62.5 g/ha [8]: 0%; pest or weed control at 250 g/ha [8]: 0%; plant injury at 15.625 g/ha (corn (Zea mays) [9]): 0%; plant injury at 62.5 g/ha (corn (Zea mays) [9]): 0%; plant injury at 250 g/ha (corn (Zea mays) [9]): 0%; pest or weed control at 15.625 g/ha [10]: 0%; pest or weed control at 62.5 g/ha [10]: 0%; pest or weed control at 250 g/ha [10]: 0%; pest or weed control at 15.625 g/ha [11]: 0%; pest or weed control at 62.5 g/ha [11]: 0%; pest or weed control at 250 g/ha [11]: 0%; pest or weed control at 15.625 g/ha [12]: 0%; pest or weed control at 62.5 g/ha [12]: 0%; pest or weed control at 250 g/ha [12]: 0% |
| CCOc1ccc(C2CN(C)C(=O)C2C(=O)Nc2cccc(F)c2F)cc1OCC (stereo not drawn) [Compound 1716] | 0% | 10% | 10% | 0% | 80% | 90% | 0% | 0% | 60% | 0% | 0% | 0% | 0% | 10% | 10% | 30% | 90% | 90% | 0% | 0% | pest or weed control at 250 g/ha [7]: 0%; pest or weed control at 15.625 g/ha [8]: 0%; pest or weed control at 62.5 g/ha [8]: 60%; pest or weed control at 250 g/ha [8]: 80%; plant injury at 15.625 g/ha (corn (Zea mays) [9]): 0%; plant injury at 62.5 g/ha (corn (Zea mays) [9]): 10%; plant injury at 250 g/ha (corn (Zea mays) [9]): 60%; pest or weed control at 15.625 g/ha [10]: 0%; pest or weed control at 62.5 g/ha [10]: 0%; pest or weed control at 250 g/ha [10]: 10%; pest or weed control at 15.625 g/ha [11]: 0%; pest or weed control at 62.5 g/ha [11]: 0%; pest or weed control at 250 g/ha [11]: 0%; pest or weed control at 15.625 g/ha [12]: 40%; pest or weed control at 62.5 g/ha [12]: 70%; pest or weed control at 250 g/ha [12]: 80% |
